Reference: paper PMC2880636 (Journal of medicinal chemistry, 2009)

Columns and labels:
MOR = MOR (Mus musculus, UniProt P42866); assay: 35S-GTP[γS]-binding functional assay in MOR expressing CHO cells; format: biochemical; details: Emax relative to full agonist DAMGO (3 μM)
antinociception = assay: warm-water tail immersion test, agonist; details: doses up to 100 mg/kg
μ opioid receptor (MOR) = μ opioid receptor (MOR) (Mus musculus, UniProt P42866); assay: competitive radioligand binding, [3H]naloxone, monocloned receptor in CHO cells
Chain of μ opioid receptor (MOR) (P42866 whole entry): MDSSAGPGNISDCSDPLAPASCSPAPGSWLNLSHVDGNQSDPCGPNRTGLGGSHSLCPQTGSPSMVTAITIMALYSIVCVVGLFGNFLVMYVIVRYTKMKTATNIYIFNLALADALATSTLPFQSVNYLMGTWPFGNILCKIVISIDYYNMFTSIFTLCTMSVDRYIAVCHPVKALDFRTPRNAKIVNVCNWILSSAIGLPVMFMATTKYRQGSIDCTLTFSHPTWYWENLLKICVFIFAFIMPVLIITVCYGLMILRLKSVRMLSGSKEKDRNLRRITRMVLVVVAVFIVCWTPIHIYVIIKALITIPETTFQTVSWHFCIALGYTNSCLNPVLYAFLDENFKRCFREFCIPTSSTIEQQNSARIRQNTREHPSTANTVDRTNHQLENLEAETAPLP

morphine antinociception = assay: warm-water tail immersion test, blockade of morphine antinociception; details: sc, 5 min before morphine 10 mg/kg sc; 56 °C; tested 20 min later
W318A mutant MOR = W318A mutant MOR (Mus musculus, UniProt P42866, W318A); format: binding
Chain of W318A mutant MOR (P42866 whole entry W318A): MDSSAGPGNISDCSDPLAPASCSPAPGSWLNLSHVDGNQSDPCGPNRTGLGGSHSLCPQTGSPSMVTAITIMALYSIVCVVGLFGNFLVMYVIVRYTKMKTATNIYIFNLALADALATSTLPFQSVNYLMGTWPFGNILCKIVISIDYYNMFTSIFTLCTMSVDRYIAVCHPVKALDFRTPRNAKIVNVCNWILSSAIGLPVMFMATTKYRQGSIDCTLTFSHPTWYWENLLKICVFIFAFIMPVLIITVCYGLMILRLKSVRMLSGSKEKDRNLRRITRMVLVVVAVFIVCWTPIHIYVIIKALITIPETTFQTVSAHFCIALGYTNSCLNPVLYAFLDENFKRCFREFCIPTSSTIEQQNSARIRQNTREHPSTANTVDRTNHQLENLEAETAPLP

Chain of MOR (P42866 whole entry): as the sequence (P42866 whole entry) above

Question: With O=C(N[C@H]1CC[C@@]2(O)[C@H]3Cc4ccc(O)c5c4[C@@]2(CCN3CC2CC2)[C@H]1O5)c1cc2ccccc2cn1 [Compound 9, 17-Cyclopropylmethyl-3,14β-dihydroxy-4,5α-epoxy-6α-[(3′-isoquinolyl)acetamido]morphinan] as the compound, how does the “% max of DAMGO” value (MOR) read?
Answer: approximately 20%

Question: And the “agonist effect in tail immersion test” value (antinociception)?
Answer: neither of these ligands produced any agonist effect

Question: And the “selectivity for the MOR over the DOR” value (μ opioid receptor (MOR))?
Answer: over 200 fold

Question: And the “selectivity for the MOR over the KOR” value (μ opioid receptor (MOR))?
Answer: approximately 50 fold

Question: What about the “AD50 value (mg/kg (95% CL)) for blockade of morphine antinociception” value (from here on “AD50 value (mg/kg (95% CL)) for blockade”) (morphine antinociception) of the same compound?
Answer: 0.45 (0.27–0.78) mg/kg

Question: And the IC50 (W318A mutant MOR)?
Answer: > 1000 nM

Question: How did the “AD50 value (mg/kg (95% CL)) for blockade” value (morphine antinociception) turn out when O=C(N[C@@H]1CC[C@@]2(O)[C@H]3Cc4ccc(O)c5c4[C@@]2(CCN3CC2CC2)[C@H]1O5)c1cc2ccccc2cn1 [Compound 10] was run?
Answer: inactive

Question: Which “AD50 value (mg/kg (95% CL)) for blockade” value (morphine antinociception) does the source give for O=C(N[C@H]1CC[C@@]2(O)[C@H]3Cc4ccc(O)c5c4[C@@]2(CCN3CC2CC2)[C@H]1O5)c1cnc2ccccc2c1 [Compound 13, 17-Cyclopropylmethyl-3,14β-dihydroxy-4,5α-epoxy-6α-[(3′-quinolyl)acetamido]morphinan] here?
Answer: 4.45 (2.41–8.15) mg/kg

Question: How did the “AD50 value (mg/kg (95% CL)) for blockade” value (morphine antinociception) turn out when O=C(N[C@@H]1CC[C@@]2(O)[C@H]3Cc4ccc(O)c5c4[C@@]2(CCN3CC2CC2)[C@H]1O5)c1cnc2ccccc2c1 [Compound 14, 17-Cyclopropylmethyl-3,14β-dihydroxy-4,5α-epoxy-6β-[(3′-quinolyl)acetamido]morphinan] was run?
Answer: 42.55 (23.67–76.51) mg/kg

Question: C=CCN1CC[C@]23c4c5ccc(O)c4O[C@H]2C(=O)CC[C@@]3(O)[C@H]1C5 [naloxone, reference compound] was tested. Which “AD50 value (mg/kg (95% CL)) for blockade” value (morphine antinociception) did it give?
Answer: 0.05 (0.03–0.09) mg/kg
